Data on 33 molecules can be found in patent US20240279215A1 (Cytokinetics, Incorporated, priority 2022, published 2024).

Structures are written as SMILES.

The target in the test is human NAMPT (Homo sapiens (Human), UniProt P43490). In words: NMN fluorescence biochemical assay (human recombinant NAMPT enzyme assay). Here is the method: Compounds described herein were assayed for their ability to stimulate the synthesis of nicotinamide mononucleotide (NMN) by the enzyme NAMPT. The human recombinant enzyme assay measures the activation of the enzyme activity by compounds using recombinant enzyme and substrates in a buffered cell-free system. The assay conditions closely mimic cellular environments. Dose responses were measured using an assay to detect the formation of nicotinamide mono-nucleotide. All experiments were performed in the 384-well format. Generally, 0.5 μL of DMSO containing varying concentrations of the test compound was mixed with 10 μL of the enzyme reagent solution. Enzyme reactions were initiated with the addition of […] containing the substrates. The final assay conditions were as follows: 6 nM human NAMPT, 2.5 mM ATP, 20 μM PRPP and 150 μM nicotinamide in 50 mM HEPES, pH 7.2, 1 mM DTT, 1 mM CHAPS 50 mM NaCl, 100 mM MgCl2. Following an incubation of 60 min at ambient temperature, 10 μL of 20% acetophenone in DMSO was added, followed by 10 μL of 2 M KOH and 40 μL of formic acid. The plates were read for fluorescence (Excitation/Emission=355 nm/460 nm) using an EnVision plate reader after 40 mins of incubation at ambient temperature.
Chain of human NAMPT (P43490 whole entry): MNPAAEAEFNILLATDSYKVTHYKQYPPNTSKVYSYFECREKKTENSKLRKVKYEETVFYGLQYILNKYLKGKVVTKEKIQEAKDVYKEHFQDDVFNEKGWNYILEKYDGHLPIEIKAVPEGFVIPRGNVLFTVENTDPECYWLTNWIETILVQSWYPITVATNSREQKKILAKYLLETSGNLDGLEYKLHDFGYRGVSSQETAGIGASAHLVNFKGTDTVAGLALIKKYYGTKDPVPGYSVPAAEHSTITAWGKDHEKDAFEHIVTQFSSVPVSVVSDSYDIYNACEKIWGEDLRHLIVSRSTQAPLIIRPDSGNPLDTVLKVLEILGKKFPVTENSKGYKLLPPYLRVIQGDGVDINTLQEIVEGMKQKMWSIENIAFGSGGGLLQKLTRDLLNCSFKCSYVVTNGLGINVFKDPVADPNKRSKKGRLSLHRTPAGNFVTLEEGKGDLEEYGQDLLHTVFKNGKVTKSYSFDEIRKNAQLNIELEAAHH

Turning to `CS(=O)(=O)N1CCC2(CC(c3ccc(NC(=O)OCc4cnco4)cc3F)C2)C1` (single isomer, unassigned) [Compound 359], the “AC1.4 Human” value is 0.104 µM and the EC50 (in general, the midpoint of the concentration-response curve) was determined as 3.5 µM.

Regarding `CS(=O)(=O)N1CCC2(CC(c3ccc(NC(=O)OCc4cnco4)cc3F)C2)C1` (single isomer, unassigned) [Compound 360], the “AC1.4 Human” value worked out at 0.07 µM and the EC50 was found to be 2.33 µM.

For the molecule `CC(C)C(=O)N1CCC2(CC(c3ccc(NC(=O)OCc4cnco4)cc3F)C2)C1` (single isomer, unassigned) [Compound 361], the “AC1.4 Human” value came out at 0.08 µM and the EC50 amounted to 10.8 µM.

For `CC(C)C(=O)N1CCC2(CC(c3ccc(NC(=O)OCc4cnco4)cc3F)C2)C1` (single isomer, unassigned) [Compound 362], the “AC1.4 Human” value was determined as 0.05 µM and the EC50 stood at 4.6 µM.

Take `CN(C)C(=O)N1CCC2(CC(c3ccc(NC(=O)OCc4cnco4)cc3F)C2)C1` (single isomer, unassigned) [Compound 363]: the “AC1.4 Human” value turned out to be 0.03 µM and the EC50 was 4.49 µM.

For the molecule `CN(C)C(=O)N1CCC2(CC(c3ccc(NC(=O)OCc4cnco4)cc3F)C2)C1` (single isomer, unassigned) [Compound 364], the “AC1.4 Human” value was 0.07 µM and the EC50 came out at 3.97 µM.

With `CC(=O)N1CCC2(CC(c3ccc(NC(=O)OCc4cnco4)cc3F)C2)C1` (single isomer, unassigned) [Compound 372], the “AC1.4 Human” value stood at 0.09 µM and the EC50 worked out at 5.64 µM.

Take `CC(=O)N1CCC2(CC(c3ccc(NC(=O)OCc4cnco4)cc3F)C2)C1` (single isomer, unassigned) [Compound 373]: the “AC1.4 Human” value came out at 0.013 µM and the EC50 stood at 0.24 µM.

For `COc1ccc(COC(=O)Nc2ccc(CN3CCC[C@@H]3c3cccnc3)cc2)cc1` [Compound 1, (4-methoxyphenyl)methyl N-(4-{[(2R)-2-(pyridin-3-yl)pyrrolidin-1-yl]methyl}phenyl)carbamate], the “AC1.4 Human” value amounted to 0.03 µM and the EC50 is 0.44 µM.

Turning to `NC(=O)c1ccc(COC(=O)Nc2ccc(CN3CCC[C@@H]3c3cccnc3)cc2)cc1` [Compound 2, (4-carbamoylphenyl)methyl N-(4-{[(2R)-2-(pyridin-3-yl)pyrrolidin-1-yl]methyl}phenyl)carbamate], the “AC1.4 Human” value turned out to be 0.05 µM and the EC50 worked out at 0.96 µM.

`O=C(Nc1ccc(CN2CCC[C@@H]2c2cccnc2)cc1)OCc1ccncc1` [Compound 3, pyridin-4-ylmethylN-(4-{[(2R)-2-(pyridin-3-yl)pyrrolidin-1-yl]methyl}phenyl)carbamate]: the “AC1.4 Human” value was found to be 0.05 µM and the EC50 was found to be 0.31 µM.

For the molecule `CN(C)C(=O)N1CCC(c2ccc(NC(=O)OCc3cnco3)cc2)CC1` [Compound 4, oxazol-5-ylmethyl (4-(1-(dimethylcarbamoyl)piperidin-4-yl)phenyl)carbamate], the “AC1.4 Human” value was found to be 0.06 µM and the EC50 is 21.8 µM.

Turning to `O=C(Nc1ccc(CN2CCC[C@@H]2c2cccnc2)cc1)OCc1cnco1` [Compound 6, oxazol-5-ylmethyl (R)-(4-((2-(pyridin-3-yl)pyrrolidin-1-yl)methyl)phenyl)carbamate], the “AC1.4 Human” value was 0.07 µM and the EC50 was determined as 0.55 µM.

Regarding `CC(C)C(=O)N1CCC(c2ccc(NC(=O)OCc3cnco3)cc2)CC1` [Compound 7, 1,3-oxazol-5-ylmethyl N-{4-[1-(2-methylpropanoyl)piperidin-4-yl]phenyl}carbamate], the “AC1.4 Human” value came to 0.11 µM and the EC50 is 20.8 µM.

As for `Cc1ccc(C(=O)NCc2ccc(NC(=O)OCc3cn[nH]c3)cc2)cn1` [Compound 9, (1H-pyrazol-4-yl)methyl (4-((6-methylnicotinamido)methyl)phenyl)carbamate], the “AC1.4 Human” value is 0.15 µM and the EC50 is 16 µM.

On to `CNS(=O)(=O)N1CCC(Cc2ccc(NC(=O)OCc3cnco3)cc2)CC1` [Compound 10, oxazol-5-ylmethyl (4-((1-(N-methylsulfamoyl)piperidin-4-yl)methyl)phenyl)carbamate], for which the “AC1.4 Human” value worked out at 0.16 µM and the EC50 came to 11.2 µM.

As to `COC(=O)N1CCC(Cc2ccc(NC(=O)OCc3cnco3)cc2)CC1` [Compound 11, methyl 4-(4-(((oxazol-5-ylmethoxy)carbonyl)amino)benzyl)piperidine-1-carboxylate], the “AC1.4 Human” value was 0.21 µM and the EC50 is 22.5 µM.

Take `Cc1nn(C)c(C(=O)N[C@@H](C)c2ccc(NC(=O)OCc3ccc(Cl)cc3)cc2)c1C` [Compound 12, (4-chlorophenyl)methyl N-{4-[(1S)-1-[(2,4,5-trimethylpyrazol-3-yl)formamido]ethyl]phenyl}carbamate]: the “AC1.4 Human” value came to 0.22 µM and the EC50 was 0.34 µM.

As for `O=C(Nc1ccc(CCC2CCN(C(=O)C3COC3)CC2)cc1)OCc1cnco1` [Compound 13, oxazol-5-ylmethyl (4-(2-(1-(oxetane-3-carbonyl)piperidin-4-yl)ethyl)phenyl)carbamate], the “AC1.4 Human” value came to 0.22 µM and the EC50 stood at 44.7 µM.

On to `NC(=O)c1ccc(COC(=O)Nc2ccc(Cc3ccncc3)cc2)cc1` [Compound 14, 4-carbamoylbenzyl (4-(pyridin-4-ylmethyl)phenyl)carbamate], for which the “AC1.4 Human” value was 0.23 µM and the EC50 is 10.7 µM.

Regarding `CC(=O)N1CCC(c2ccc(NC(=O)OCc3ccc(Cl)cc3)cc2)CC1` [Compound 15, (4-chlorophenyl)methyl N-[4-(1-acetylpiperidin-4-yl)phenyl]carbamate], the “AC1.4 Human” value was determined as 0.24 µM and the 50% effective concentration (EC50) was found to be 2.16 µM.

`CC(=O)N1CC(OCc2ccc(NC(=O)OCc3ccc(Cl)cc3)cc2)C1` [Compound 16, 4-chlorobenzyl (4-(((1-acetylazetidin-3-yl)oxy)methyl)phenyl)carbamate]: the “AC1.4 Human” value is 0.25 µM and the EC50 was 3.5 µM.

For `CNS(=O)(=O)N1CCC(Cc2ccc(NC(=O)OCc3ccc(Cl)cc3)cc2)CC1` [Compound 17, 4-chlorobenzyl (4-((1-(N-methylsulfamoyl)piperidin-4-yl)methyl)phenyl)carbamate], the “AC1.4 Human” value was 0.25 µM and the EC50 is 0.9 µM.

As for `CS(=O)(=O)N1CCC(Cc2ccc(NC(=O)OCc3cnco3)cc2)CC1` [Compound 18, oxazol-5-ylmethyl (4-((1-(methylsulfonyl)piperidin-4-yl)methyl)phenyl)carbamate], the “AC1.4 Human” value came out at 0.25 µM and the EC50 turned out to be 16.2 µM.

With `Cc1nn(C)c(C(=O)NCc2ccc(NC(=O)OCc3ccc(Cl)cc3)cc2)c1C` [Compound 19, (4-chlorophenyl)methyl N-(4-{[(2,4,5-trimethylpyrazol-3-yl)formamido]methyl}phenyl)carbamate], the “AC1.4 Human” value is 0.26 µM and the EC50 was 0.59 µM.

Turning to `C[C@H](NC(=O)c1ccnn1C1CCOCC1)c1ccc(NC(=O)OCc2ccc(Cl)cc2)cc1` [Compound 20, (4-chlorophenyl)methyl N-{4-[(1S)-1-{[2-(oxan-4-yl)pyrazol-3-yl]formamido}ethyl]phenyl}carbamate], the “AC1.4 Human” value was 0.29 µM and the EC50 is 2.57 µM.

Turning to `C[C@H](NC(=O)C1CC2(C1)CC(F)(F)C2)c1ccc(NC(=O)OCc2cnco2)cc1` [Compound 22, 1,3-oxazol-5-ylmethyl N-{4-[(1S)-1-({6,6-difluorospiro[3.3]heptan-2-yl}formamido)ethyl]phenyl}carbamate], the “AC1.4 Human” value is 0.32 µM and the EC50 worked out at 10.1 µM.

As for `O=C(Nc1ccc(CN2CCN(c3cnccn3)CC2)cc1)OCc1ccc(Cl)cc1` [Compound 24, (4-chlorophenyl)methyl N-(4-{[4-(pyrazin-2-yl)piperazin-1-yl]methyl}phenyl)carbamate], the “AC1.4 Human” value came to 0.34 µM and the EC50 was found to be 1.88 µM.

With `Cc1ccc(C(=O)NCc2ccc(NC(=O)OCc3cnco3)cc2)cn1` [Compound 25, oxazol-5-ylmethyl (4-((6-methylnicotinamido)methyl)phenyl)carbamate], the “AC1.4 Human” value is 0.35 µM and the EC50 was found to be 7.8 µM.

For the molecule `CC(=O)N1CCC(CCc2ccc(NC(=O)OCc3cnco3)cc2)CC1` [Compound 26, oxazol-5-ylmethyl (4-(2-(1-acetylpiperidin-4-yl)ethyl)phenyl)carbamate], the “AC1.4 Human” value is 0.35 µM and the EC50 came out at 27.5 µM.

As for `CN1CCN(Cc2ccc(NC(=O)OCc3ccc(Cl)cc3)cc2)C(=O)C1` [Compound 28, 4-chlorobenzyl (4-((4-methyl-2-oxopiperazin-1-yl)methyl)phenyl)carbamate], the “AC1.4 Human” value stood at 0.36 µM and the EC50 is 3.01 µM.

With `O=C(Nc1ccc(CN2CCN(c3ccccn3)CC2)cc1)OCc1ccc(Cl)cc1` [Compound 29, (4-chlorophenyl)methyl N-(4-{[4-(pyridin-2-yl)piperazin-1-yl]methyl}phenyl)carbamate], the “AC1.4 Human” value stood at 0.37 µM and the EC50 worked out at 1.51 µM.

Consider `CN(C)C(=O)N1CCC(Cc2ccc(NC(=O)OCc3cnco3)cc2)CC1` [Compound 30, oxazol-5-ylmethyl (4-((1-(dimethylcarbamoyl)piperidin-4-yl)methyl)phenyl)carbamate], for which the “AC1.4 Human” value worked out at 0.37 µM and the EC50 worked out at 25.1 µM.
